PubChem BioAssay (NCI)
Where “and” joins values, the source holds several entries; their conditions need not be identical. Identical values can stand only once.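 Dose response: 5 concentrations. Exposure: 48 h. Format: 96-well plates. Endpoint: linear interpolation; highest concentration if not reached. GI50 is the concentration that inhibits growth by half. The concentration for full growth arrest is given as TGI.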

Assays:
Test in all cases: growth of human tumour cells (NCI), 48 h
KM12 colon = system: KM12 colon
LOX IMVI melanoma = system: LOX IMVI melanoma
SNB-75 CNS = system: SNB-75 CNS
HL-60(TB) leukemia = system: HL-60(TB) leukemia
DU-145 prostate = system: DU-145 prostate
COLO 205 colon = system: COLO 205 colon
BT-549 breast = system: BT-549 breast
NCI-H226 lung = system: NCI-H226 lung
HOP-92 NSCLC = system: HOP-92 NSCLC
HCT-15 colon = system: HCT-15 colon

Compound	GI50 (KM12 colon)	TGI (KM12 colon)	GI50 (LOX IMVI melanoma)	TGI (LOX IMVI melanoma)	GI50 (SNB-75 CNS)	TGI (SNB-75 CNS)	GI50 (HL-60(TB) leukemia)	TGI (HL-60(TB) leukemia)	GI50 (DU-145 prostate)	TGI (DU-145 prostate)	GI50 (COLO 205 colon)	TGI (COLO 205 colon)	GI50 (BT-549 breast)	TGI (BT-549 breast)	GI50 (NCI-H226 lung)	TGI (NCI-H226 lung)	GI50 (HOP-92 NSCLC)	TGI (HOP-92 NSCLC)	GI50 (HCT-15 colon)	TGI (HCT-15 colon)
COc1ccc2cc1Oc1ccc(cc1)C[C@H]1c3c(cc4c(c3Oc3cc5c(cc3OC)CCN(C)[C@@H]5C2)OCO4)CCN1C	4.83 µM	13.2 µM	0.702 µM	1.52 µM	5.27 µM	11.4 µM	3.54 µM	11.9 µM	6.23 µM	17.8 µM	0.356 µM	1.36 µM	5.12 µM	11.8 µM	4.1 µM	11.5 µM	1.3 µM	11.8 µM	2.02 µM	8.34 µM
CC(C)NCCCn1c(Sc2cc3c(cc2I)OCO3)nc2c(N)ncnc21	0.0592 µM	0.755 µM	0.0787 µM	–	0.727 µM	> 100 µM	0.0637 µM	6.91 µM	0.0473 µM	> 100 µM	0.0477 µM	10.8 µM	1.51 µM	> 100 µM	0.767 µM	79.4 µM	0.289 µM	1.62 µM	0.441 µM	> 100 µM
N#Cc1c(N2CCOCC2)nc(=S)[nH]c1-c1ccco1	10.4 µM	> 100 µM	6.68 µM	> 100 µM	2.15 µM	55.6 µM	4.26 µM	> 100 µM	10.2 µM	> 100 µM	5.7 µM	70.3 µM	3.15 µM	18.1 µM	3.94 µM	63.5 µM	1.79 µM	> 100 µM	6.2 µM	> 100 µM
Cc1ccc(/C=N\NC(=O)c2[nH]c3ccc(F)cc3c2-c2ccccc2)cc1	0.0282 µM	0.898 µM	0.0339 µM	> 100 µM	0.0382 µM	16.6 µM	0.0291 µM	0.121 µM	0.0251 µM	0.0622 µM	0.0186 µM	0.0343 µM	0.034 µM	7.29 µM	0.0321 µM	> 100 µM	0.0363 µM	50.3 µM	0.0288 µM	–
O=C(Nc1ccc(OCc2nnc(-c3ccc(Cl)cc3)o2)c(F)c1)Nc1ccc(Cl)c(C(F)(F)F)c1	1.71 µM	4.96 µM	2.23 µM	6.66 µM	1.44 µM	6.29 µM	2.83 µM	6.78 µM	2.48 µM	6.78 µM	1.73 µM	3.5 µM	3.06 µM	11 µM	2.84 µM	13.2 µM	1.46 µM	3.82 µM	2.03 µM	10.9 µM
C=CC(=O)Nc1cccc(Oc2nc(Nc3ccc(N4CCN(C)CC4)cc3)nc3ccsc23)c1	3.36 µM and 2.49 µM	> 10 µM and 6.77 µM	1.69 µM and 1.75 µM	3.09 µM and 3.33 µM	1.54 µM and 2.1 µM	> 10 µM and 10.5 µM	1.43 µM	4.09 µM	2.41 µM and 2.04 µM	> 10 µM and 6.24 µM	2.19 µM	5.27 µM	2.8 µM and 3.62 µM	> 10 µM and 14.6 µM	8.23 µM and 10.4 µM	> 10 µM and 36.9 µM	0.801 µM and 1.81 µM	6.47 µM and 4.97 µM	2.32 µM and 2.54 µM	9.5 µM and 10.6 µM
O=C1NC(=O)C(N2C(=O)c3ccccc3C2=O)CC1O (stereo not drawn)	> 100 µM	> 100 µM	> 100 µM	> 100 µM	> 100 µM	> 100 µM	> 100 µM	> 100 µM	> 100 µM	> 100 µM	> 100 µM	> 100 µM	> 100 µM	> 100 µM	> 100 µM	> 100 µM	> 100 µM	> 100 µM	> 100 µM	> 100 µM
O=C(O)CN1CCN(CC(=O)O)CC(=O)[O][Hg][O]C(=O)C1	> 100 µM	> 100 µM	10.3 µM	26.7 µM	23.6 µM	66.5 µM	13.7 µM	34.7 µM	27.8 µM	> 61.9 µM	17.8 µM	32.5 µM	19.5 µM	34.8 µM	> 100 µM	> 100 µM	20.6 µM	37.8 µM	21.1 µM	46.5 µM
CNCCCNCCCCNCCCN1C(=O)c2ccc3c4c(ccc(c24)C1=O)C(=O)N(CCCNCc1ccccc1OC)C3=O	2.75 µM	17.4 µM	3.03 µM	14 µM	1.05 µM	13.3 µM	3.68 µM	23.4 µM	5.09 µM	17.3 µM	1.38 µM	8.16 µM	3.4 µM	15.8 µM	2.17 µM	21.3 µM	2.21 µM	18.9 µM	4.27 µM	70.1 µM
O=C1c2c(c3c4ccccc4[nH]c3c3ccc4ccccc4c23)C(=O)N1CCN1CCNCC1	1.5 µM	3.07 µM	1.63 µM	3.11 µM	1.47 µM	2.82 µM	1.61 µM	3.5 µM	1.73 µM	3.25 µM	1.78 µM	3.6 µM	1.58 µM	2.97 µM	11.7 µM	33.3 µM	1.83 µM	4.14 µM	1.49 µM	2.98 µM
COc1cc2c(cc1OCCCn1c(-c3ccccn3)nc3ccccc31)N=C[C@@H]1CCCN1C2=O	1.9 µM	4.1 µM	1.71 µM	6.16 µM	1.72 µM	5.73 µM	4.45 µM	> 24.6 µM	2.72 µM	6.72 µM	2.22 µM	4.9 µM	1.6 µM	4.87 µM	0.8 µM	6.9 µM	3.87 µM	26.6 µM	2.5 µM	9.92 µM
COc1cc(N2C(=O)[C@H](O)C2c2ccc(SC)cc2)cc(OC)c1OC (stereo partly drawn)	< 0.01 µM	> 100 µM	< 0.01 µM	> 100 µM	< 0.01 µM	> 100 µM	0.0106 µM	0.0448 µM	0.0238 µM	> 100 µM	0.0101 µM	0.0357 µM	< 0.01 µM	0.0835 µM	< 0.01 µM	> 100 µM	71.4 µM	> 100 µM	0.0115 µM	> 100 µM
O=C(O)c1ccc(C(=O)c2ccccc2)c(C(=O)O)c1	–	> 100 µM	–	> 100 µM	–	> 100 µM	–	> 100 µM	–	> 100 µM	–	> 100 µM	–	> 100 µM	–	> 100 µM	–	> 100 µM	–	> 100 µM
